In patent US20260250318A1, “COMPOSITIONS AND METHODS FOR CROSSING THE BLOOD BRAIN BARRIER” (VOYAGER THERAPEUTICS, INC., priority 2022, published 2026):

Assays:
[1] = system: brains, heart, liver, muscle, and DRG of the NHPs; assay: Maturation of TTM-001 and TTM-002 capsids, NGS enrichment in NHP tissues; format: in vivo; conditions: relative to AAV9 control
Summary of the method: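 Variants carry mutations within and flanking the loop IV peptide insert: positions 450–466 were triplet-randomized, while positions 449–466 received low-frequency point mutations. The combined pool went into two NHPs, and each peptide was scored by NGS enrichment ratio against AAV9.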

[2] = system: brain; assay: Matured TTM-001 and TTM-002 variants, NGS enrichment in mouse brain; format: in vivo, mice; conditions: relative to AAV9 control
[3] = NGS fold-enrichment of RNA, NHP brain
[4] = NGS fold-enrichment, NHP liver DNA
[5] = NGS fold-enrichment, NHP liver RNA
[6] = NGS fold-enrichment, NHP muscle
[7] = NGS fold-enrichment, mouse brain
[8] = NGS fold-enrichment of matured AAV capsid variants, NHP brain, RNA
[9] = NGS fold-enrichment, DRG of NHPs
[10] = NGS fold-enrichment, RNA, brain of NHPs
[11] = NGS fold-enrichment, heart of NHPs
[12] = NGS fold-enrichment, liver DNA of NHPs
[13] = NGS fold-enrichment, liver RNA of NHPs
[14] = NGS fold-enrichment, muscle of NHPs
[15] = NGS fold-enrichment, brain of mice

Sequence | Fold Enrichment relative to AAV9, Brain (NHP) [1, 3] | Fold Enrichment relative to AAV9, DRG (NHP) ([1]; NGS fold-enrichment, NHP DRG) | Fold Enrichment relative to AAV9, Heart (NHP) ([1]; NGS fold-enrichment, NHP heart) | Fold Enrichment relative to AAV9, Liver DNA (NHP) [1, 4] | Fold Enrichment relative to AAV9, Liver RNA (NHP) [1, 5] | Fold Enrichment relative to AAV9, Muscle (NHP) [1, 6] | Fold Enrichment relative to AAV9, Brain (Mouse) [2, 7] | Fold Enrichment relative to AAV9, DRG (NHP) [1, 9] | Fold Enrichment relative to AAV9, Brain (NHP) [1, 10] | Fold Enrichment relative to AAV9, Heart (NHP) [1, 11] | Fold Enrichment relative to AAV9, Liver DNA (NHP) [1, 12] | Fold Enrichment relative to AAV9, Liver RNA (NHP) [1, 13] | Fold Enrichment relative to AAV9, Muscle (NHP) [1, 14] | Fold Enrichment relative to AAV9, Brain (Mouse) [2, 15] | other results
KTIDGHDSPHKSGQNQHA | 91.058 fold | 0.000 fold | 0.082 fold | 0.000 fold | 0.000 fold | 0.000 fold | 10.781 fold |  |  |  |  |  |  |  | 
KTIDGHDSPHKSGRNQQI | 80.240 fold | 0.000 fold | 0.037 fold | 0.144 fold | 0.040 fold | 0.000 fold | 10.363 fold |  |  |  |  |  |  |  | 
KTIDGSGSPHSKALNKQT |  |  |  |  |  |  |  |  |  |  |  |  |  |  | Fold Enrichment relative to AAV9, Brain (NHP) [1, 8]: 58.992 fold; Fold Enrichment relative to AAV9, DRG (NHP) ([1]; NHP DRG): 0.000 fold; Fold Enrichment relative to AAV9, Heart (NHP) ([1]; NHP heart): 0.267 fold; Fold Enrichment relative to AAV9, Liver DNA (NHP) ([1]; NHP liver, DNA): 0.056 fold; Fold Enrichment relative to AAV9, Liver RNA (NHP) ([1]; NHP liver, RNA): 0.000 fold; Fold Enrichment relative to AAV9, Muscle (NHP) ([1]; NHP muscle): 0.000 fold; Fold Enrichment relative to AAV9, Brain (Mouse) ([2]; mouse brain): 74.626 fold
KTIDGSGSPHSKAQNQQH | 79.090 fold | 0.000 fold | 0.000 fold | 0.049 fold | 0.136 fold | 0.000 fold | 57.914 fold | 0.000 fold | 79.090 fold | 0.000 fold | 0.049 fold | 0.136 fold | 0.000 fold | 57.914 fold | 
KTIDGSGSPHSKGQNRQT |  |  |  |  |  |  |  | 0.000 fold | 73.930 fold | 0.000 fold | 0.091 fold | 0.106 fold | 0.000 fold | 63.626 fold | 
KTIDGSGSPHSKSQNHQT |  |  |  |  |  |  |  |  |  |  |  |  |  |  | Fold Enrichment relative to AAV9, Brain (NHP) [1, 8]: 51.307 fold; Fold Enrichment relative to AAV9, DRG (NHP) ([1]; NHP DRG): 0.000 fold; Fold Enrichment relative to AAV9, Heart (NHP) ([1]; NHP heart): 0.000 fold; Fold Enrichment relative to AAV9, Liver DNA (NHP) ([1]; NHP liver, DNA): 0.269 fold; Fold Enrichment relative to AAV9, Liver RNA (NHP) ([1]; NHP liver, RNA): 0.000 fold; Fold Enrichment relative to AAV9, Muscle (NHP) ([1]; NHP muscle): 0.000 fold; Fold Enrichment relative to AAV9, Brain (Mouse) ([2]; mouse brain): 63.174 fold
KTIEGHDSPHKSGRNQQT | 75.838 fold | 0.000 fold | 0.065 fold | 0.079 fold | 0.000 fold | 0.017 fold | 7.818 fold |  |  |  |  |  |  |  | 
KTIIGGGSPHSKAHNQQT | 75.872 fold | 0.000 fold | 0.050 fold | 0.235 fold | 0.000 fold | 0.000 fold | 65.492 fold | 0.000 fold | 75.872 fold | 0.050 fold | 0.235 fold | 0.000 fold | 0.000 fold | 65.492 fold | 
KTIIGGGSPHSKAQNPQT |  |  |  |  |  |  |  |  |  |  |  |  |  |  | Fold Enrichment relative to AAV9, Brain (NHP) [1, 8]: 58.924 fold; Fold Enrichment relative to AAV9, DRG (NHP) ([1]; NHP DRG): 0.000 fold; Fold Enrichment relative to AAV9, Heart (NHP) ([1]; NHP heart): 0.202 fold; Fold Enrichment relative to AAV9, Liver DNA (NHP) ([1]; NHP liver, DNA): 0.126 fold; Fold Enrichment relative to AAV9, Liver RNA (NHP) ([1]; NHP liver, RNA): 0.000 fold; Fold Enrichment relative to AAV9, Muscle (NHP) ([1]; NHP muscle): 0.000 fold; Fold Enrichment relative to AAV9, Brain (Mouse) ([2]; mouse brain): 53.992 fold
KTIIGSGSPHSKAQDRQT |  |  |  |  |  |  |  |  |  |  |  |  |  |  | Fold Enrichment relative to AAV9, Brain (NHP) [1, 8]: 58.258 fold; Fold Enrichment relative to AAV9, DRG (NHP) ([1]; NHP DRG): 1.393 fold; Fold Enrichment relative to AAV9, Heart (NHP) ([1]; NHP heart): 0.230 fold; Fold Enrichment relative to AAV9, Liver DNA (NHP) ([1]; NHP liver, DNA): 0.045 fold; Fold Enrichment relative to AAV9, Liver RNA (NHP) ([1]; NHP liver, RNA): 0.000 fold; Fold Enrichment relative to AAV9, Muscle (NHP) ([1]; NHP muscle): 0.219 fold; Fold Enrichment relative to AAV9, Brain (Mouse) ([2]; mouse brain): 53.981 fold
KTIIGSGSPHSKAQHQLT |  |  |  |  |  |  |  | 0.000 fold | 72.291 fold | 0.000 fold | 0.000 fold | 0.000 fold | 0.000 fold | 100.144 fold | 
KTIIGSGSPHSKAQNRHT | 217.176 fold | 0.000 fold | 0.000 fold | 0.000 fold | 0.000 fold | 0.000 fold | 210.515 fold | 0.000 fold | 217.176 fold | 0.000 fold | 0.000 fold | 0.000 fold | 0.000 fold | 210.515 fold | 
KTIIKNGSPHSKAQNQQT |  |  |  |  |  |  |  |  |  |  |  |  |  |  | Fold Enrichment relative to AAV9, Brain (NHP) [1, 8]: 50.587 fold; Fold Enrichment relative to AAV9, DRG (NHP) ([1]; NHP DRG): 0.000 fold; Fold Enrichment relative to AAV9, Heart (NHP) ([1]; NHP heart): 0.000 fold; Fold Enrichment relative to AAV9, Liver DNA (NHP) ([1]; NHP liver, DNA): 0.751 fold; Fold Enrichment relative to AAV9, Liver RNA (NHP) ([1]; NHP liver, RNA): 0.000 fold; Fold Enrichment relative to AAV9, Muscle (NHP) ([1]; NHP muscle): 0.000 fold; Fold Enrichment relative to AAV9, Brain (Mouse) ([2]; mouse brain): 75.547 fold
KTIKGNDSPHKSVQNQQT | 85.986 fold | 0.000 fold | 0.135 fold | 0.000 fold | 0.263 fold | 0.000 fold | 8.603 fold |  |  |  |  |  |  |  | 
KTIKGQDSPHKIGQNQQT | 110.357 fold | 0.000 fold | 0.103 fold | 0.135 fold | 0.166 fold | 0.058 fold | 11.829 fold |  |  |  |  |  |  |  | 
KTIKGSGSPHSKAQDLQT |  |  |  |  |  |  |  | 0.000 fold | 63.260 fold | 0.000 fold | 0.218 fold | 0.000 fold | 0.000 fold | 58.576 fold | 
KTINAHDSPHKIGQNHQT | 106.832 fold | 0.000 fold | 0.121 fold | 0.231 fold | 0.000 fold | 0.000 fold | 5.074 fold |  |  |  |  |  |  |  | 
KTINGCGSPHASGQNQQT | 132.540 fold | 0.000 fold | 0.121 fold | 0.059 fold | 0.000 fold | 0.042 fold | 1.857 fold |  |  |  |  |  |  |  | 
KTINGGGSPHSKALNQQN | 77.822 fold | 0.000 fold | 0.131 fold | 0.274 fold | 0.000 fold | 0.000 fold | 69.884 fold | 0.000 fold | 77.822 fold | 0.131 fold | 0.274 fold | 0.000 fold | 0.000 fold | 69.884 fold | 
KTINGGGSPHSKAQDKQT |  |  |  |  |  |  |  | 0.000 fold | 59.322 fold | 0.000 fold | 0.093 fold | 0.000 fold | 0.000 fold | 50.764 fold | 
